# “Also recorded” adds a separate entry of the source.
# Legend:
# [1] = tested on: bCSCs derived from MDA-MB-231; assay: BrdU cell proliferation assay, bCSCs from MDA-MB-231; format: cell-based, human; conditions: bCSC from MDA-MB-231
# Experimental: To assess the effect of B6H12 on CSC proliferation, bCSC from MDA-MB-231 cells were treated with B6H12 or an isotype-matched control antibody, and proliferation was assessed by bromodeoxyuridine (BrdU) incorporation (FIG. 20A). […] We addressed this question by using a CRISPR vector (based on pX330-U6-Chimeric_BB-CBh-hSpCas9; Cong et al., Science. 339(6121):819-23, 2013, PMID: 23287718; sequence and other information available online at addgene.org/42230/) designed to specifically disrupt the CD47 gene in MDA-MB-231 cells (FIGS. 22A and 22B), using the following gRNA targeting sequence: 5′ CTACTGAAGTATACGTAAG ngg 3′ (PC200.Hcd47.g3a; SEQ ID NO: 2). PC200.Hcd47.g3a was transfected into bCSCs derived from MDA-MB-231 using a NUCLEOFECTOR™ kit (Lonza, Switzerland). CD47 negative cells were sorted using FACS analysis. CD47^neg bCSCs cells were expanded in culture and cell proliferation was measured using BrdU cell proliferation kit (EMD Millipore).
# Approximately 8,000 cells were plated per well on 96-well plates and incubated overnight at 37° C. The cells were treated with B6H12 or isotype control antibody (1 μg/ml) for 24 h. BrdU was added for 4 or 24 h as indicated in the figures, and BrdU incorporation was quantified using a BrdU Cell Proliferation Kit according to the manufacturer's instructions (EMD Millipore). […]
# [2] = tested on: miR let7-family from cellular RNA of MDA-MB-231; assay: Real time PCR of let-7 family miRNAs (Ct values, Table 4); format: cell-based, human
# Experimental: (FIG. 28C & FIG. 28D) The differentiated and bCSCs cells were treated with B6H12 Ab for 24 h. The total miRNA was extracted and let-7 family miRNAs were analyzed using real time PCR. Relative expression of let-7a-2miRNA in differentiated and bCSCs cells was determined using U6 as control. (FIG. 28E) EGFR mRNA expression on EVs derived from MDA-MB-231, bCSCs, T47D1 and MCF7 cells. The cells were treated with control or B6H12 antibody for 6 h using AB serum media. (FIG. 28F) Protein expression of EGFR in the presence or absence of B6H12 for 24 h using FACS sorted CD44^+/CD24-bCSCs from MDA-MB-231, T47D1 and MCF7 cell lines. FIG. 28G) Relative expression of let-7a-2miRNA from EVs. FIG. 28H) Amplification and expression of let-7a-3 miRNA from EV […].
# CSC-depleted MDA-MB-231 and bCSCs were plated at 1×10^6 cells in 6-well plates and were-treated with B6H12 or Isotype control antibody (1 μg/ml) for 36 h. Total RNA was extracted using TriPure (Roche). One μg of total RNA was used for first strand cDNA synthesis using a Maxima kit (2-Step RT PCR, Thermo Scientific) according to the manufacturer's instructions. Real time PCR was performed using SYBR Green (Roche) on an MJ Research Opticon I instrument (Bio-Rad) with the amplification program as described in (Kaur et al., Matrix Biol, 37:49-59, 2014). β2-microglobulin (B2M), HPRT1 or 18S rRNA primers were used as control to normalize mRNA expression (Table 2).
# EGFR = EGFR phosphorylation, IP-western blot in MDA-MB-231 cells and bCSCs; format: cell-based, human; conditions: MDA-MB-231 cells; B6H12 15 min, EGF 5 min
# Experimental: bCSC-depleted MDA-MB-231 cells and bCSCs were plated at 1×10^6 cells in 6-well plates. The cells were serum-starved for 2 hours using serum-free RPMI medium. The cells were pre-treated with B6H12 (1 μg/ml) for 20 min. Cell lysates were made using immunoprecipitation buffer (50 mM Tris-HCl, 150 mM NaCl, and 1% Nonidet P-40) along with 1× Complete Mini-protease inhibitor mixture (Roche Applied Science). Cell lysates were centrifuged at 13,000 rpm for 15 min. A BCA assay (Thermo scientific) was used to quantify total protein. DYNABEADS® magnetic separation beads (Invitrogen) were used for Immunoprecipitation. The DYNABEADS® magnetic separation beads were washed three times with activation buffer. The cell lysates were incubated in DYNABEADS®-protein G along with anti-EGFR and CD47 antibodies (1:500) and incubated for 24 hours at 4° C. on a shaker. The beads were washed three times with lysate buffer and heated at 95° C. for 5 min. The immunoprecipitated cell lysates were loaded on 4-12% NuPAGE gels (Life Technologies), and Western blotting was performed. For immunoprecipitation, primary antibody against phospho-EGFR (1:1000) was used. Normalization of protein lysates used for Western blotting was performed by reprobing with anti-β-actin (1:3000) or tubulin or EGFR antibodies.
# MDA-MB-231 cells were pretreated with B6H12 (1 μg/ml) for 15 min. […]
# E-cadherin = E-cadherin mRNA expression (FIG. 23); format: cell-based
# Excerpt: FIG. 23 is a bar graph showing that 7N3 peptide increase mRNA expression of E-cadherin.
# MDA-MB-231 and bCSCs = assay: Mitochondrial energetics, extracellular flux (Seahorse Analyzer); format: cell-based, human; conditions: 1 μg/ml
# Experimental: The control MDA-MB-231 and bCSCs were plated using XF24 well plates for 1-4 days. Mitochondrial energetics was measured using extracellular flux assay kits. FIG. 12A) B6H12 (1 μg/ml) alters mitochondrial energetics in bCSCs but not in control MDA-MB-231 cells. FIGS. 12B & 12C) Long term treatment of bCSC with B6H12 (1 μg/ml) leads to decrease in basal oxygen consumption rate (OCR) due to decreased ATP associated OCR and decreases reserve mitochondrial metabolic capacity. […] The cells were immunostained using BrdU antibody and mounted with Vectashield DAPI. The confocal images were taken using a Zeiss 710 microscope at 63×. FIGS. 12E & 12F) Control MDA-MB-231 cells and bCSCs were treated with control or B6H12 Ab at 0.1, 1, 2 and 5 […] for 72 h. The cell proliferation was measured using CellTiter 96® Aqueous Non-Radioactive Cell Proliferation Assay (MTS) according to manufacturers' instructions.
# B6H12 increased the basal oxygen consumption rate (OCR) at day 1 and day 3 but this was lost at day 4, when both the basal and spare metabolic capacity were decreased. The CD47 ligand TSP1 had less effect than the CD47 antibody. B6H12 decreased asymmetric division and proliferation measured by the MTS assay (FIGS. 12D-12F).
# [3] = tested on: several breast cancer cell lines; conditions: ligation of CD47; cited from earlier work
substance,measurement,setting,value
PC200.Hcd47.g3a: gRNA targeting sequence CTACTGAAGTATACGTAAG ngg (SEQ ID NO: 2) in CRISPR vector disrupting the CD47 gene (guide CTACTGAAGTATACGTAAGNGG),DNA synthesis (BrdU incorporation),[1],diminished
epidermal growth factor [EGF],Ct value of miR let7-family 7a-2,[2],26.09 ± 0.50
same,Ct value of miR let7-family 7a-3,[2],28.88 ± 0.71
same,Ct value of miR let7-family 7f-2,[2],33.24 ± 0.05
same,Ct value of miR let7-family 7d,[2],27.38 ± 0.18
same,Ct value 18S RNA,[2]; reference RNA,17.65 ± 0.35
same,EGFR phosphorylation at Y1068,EGFR,significantly increased
FIRVVMYEGKK [7N3],mRNA expression of E-cadherin,E-cadherin,increase
thrombospondin-1 [TSP1],mitochondrial energetics,MDA-MB-231 and bCSCs,modestly changes; also recorded: less effect
same,programmed cell death,[3],induce programmed cell death
